Laboratory results published in patent publication US11685953B2, “Biomarkers and methods of treating cancer” (ASTRAZENECA AB, priority 2015, dated 2023).

What was measured:
pS6 RP (S235/236) = experiment: Western blot of pS6 RP (distal readout of PI3Kα activity) in MCF7 parental and CR2.5 cells; type: cell-based, human; settings: overnight incubation (FIG. 3)
Protocol: (§1) Control MCF7 (parental) and MAP3K1-deficient (CR2.5) cell lines cultured in full growth media and treated with either Compound A, Compound B and GDC-0068 as described previously. Following overnight incubation, cell lysates are prepared and analysed by Western blotting using antibodies specific for phosphorylated proteins in the PI3K pathway (FIG. 3).

pAKT (T308) = experiment: Immunoblot of phosphorylated AKT (T308) in PIK3CA mutant breast cancer cell lines; type: cell-based, human
Protocol: Protocol for Measuring Phosphorylated AKT (T308) in MCF7, T47D Cells.
Low-passage MCF7 and T47D cells were obtained from AZ Cell Bank Collection and cultured as described previously (Avivar-Valderas et al., MCB, 31(17):3616-29, 2011). Wild-type and MCF10A-PI3Kα^H1047R were provided by Horizon Discovery.
After culture, cells were lysed, and protein was analyzed by immunoblotting (IB) (Avivar-Valderas et al., MCB, 31(17):3616-29, 2011). Membranes were blotted using antibodies against MAP3K1 (Santa Cruz) phospho AKT (Thr308) (Cell Signaling Technology) and Vinculin (Sigma). Bound antibodies were detected with horseradish peroxidase (HRP)-conjugated secondary antibodies and chemiluminescence assays (Avivar-Valderas et al., MCB, 31(17):3616-29, 2011).
The effect of MAP3K1 loss of expression on the pharmacological activity of Compound A using the cell-lines generated via siRNA transfection was examined by monitoring the level of inhibition of signalling readouts downstream of PI3Kalpha. A major readout of the pathway is the phosphorylation of AKT at Threonine 308. This phosphorylation is carried out by PDK1, itself activated by PI3K-generated PIP3 (phosphatidyl inositol 3,4,5-trisphosphate). Further pathway readouts are phosphorylation of PRAS40 (Proline-Rich AKT1 Substrate) at Thr246. […]

pPRAS40 = experiment: Western blot of pPRAS40 (readout of AKT activity) in MCF7 parental and CR2.5 cells; type: cell-based, human; settings: MAP3K1-deficient MCF7 CR2.5 cell line, overnight incubation (FIG. 3)
Protocol: as §1

pS6 RP = pS6 RP staining of 3D-Matrigel acini, MCF7 parental and MCF7 CR2.5; type: cell-based, human; settings: 2 μM per FIG. 7B legend
Protocol: For 3D cultures, cells were plated in commercially available growth factor-reduced Matrigel (Mgel) (BD Biosciences, San Diego, Calif.) and grown (Avivar-Valderas et al., MCB, 31(17):3616-29, 2011). […] 3D-Matrigel MCF10A acinar structures were fixed at day 15 and processed for size measurement and IF microscopy analysis (Avivar-Valderas et al., MCB, 31(17):3616-29, 2011)
ECM-attached cells (located in the outer rim) were positive for pS6 RP in parental acini. As predicted, the number of pS6 RP positive cells was greater in MCF7-CR2.5 (FIG. 7B, grey bars).

MCF7 parental acini = experiment: 3D-Matrigel culture, acinus volume, MCF7 parental; type: cell-based, human; settings: 500 nM every 3 days until day 15; control cultures (MCF7 parental) (FIG. 7A left)
[1] = tested on: MAP3K1-deficient MCF10A-H1047R acini; experiment: 3D-Matrigel culture, cleaved caspase 3 (apoptosis), MAP3K1-deficient MCF10A-H1047R acini; type: cell-based; settings: 15 days (FIG. 7A right)
Protocol: (§2) For 3D cultures, cells were plated in commercially available growth factor-reduced Matrigel (Mgel) (BD Biosciences, San Diego, Calif.) and grown (Avivar-Valderas et al., MCB, 31(17):3616-29, 2011). Prior to fixation for IF analysis, acini were treated with 500 nM Compound B every 3 days until the endpoint (day 15). 3D-Matrigel MCF10A acinar structures were fixed at day 15 and processed for size measurement and IF microscopy analysis (Avivar-Valderas et al., MCB, 31(17):3616-29, 2011)
(§3) This might be explained by an increase of cell proliferation or/and reduction of cell death (anoikis in ECM-deprived cells). To test the latter, staining with caspase 3 (anoikis readout) and confocal equatorial sections to analyse lumen formation (main compartment in which anoikis takes place) were carried out.

[2] = tested on: MCF10A-H1047R parental cells; experiment: IncuCyte proliferation assay, MCF10A-H1047R parental cells; type: cell-based; settings: 500 nM; MCF10A-H1047R parental cells (FIG. 4, FIG. 6)
Protocol: (§4) MCF7 and MCF10A cells were plated in 96 well plates at a density of 2000 cells per well in RPMI media containing 10% FBS or DMEM/F12 media containing 5% of HS (horse serum) respectively. After incubation at 37° C. for 16 hours, concentrations of Compound A, Compound B (30 μM to 117 nM) or AZD2014 (15 μM to 66 nM) were added to the assay plates. Plates were then placed in the IncuCyte and scheduled to be scanned every 6 h for 3 days. Relative percentage of confluence data was normalized to control DMSO treated cells and fitted to a nonlinear regression curve using PRISM (Graphpad).

[3] = tested on: MCF10A-H1047R control acini; experiment: 3D-Matrigel culture, cleaved caspase 3 (apoptosis), MCF10A-H1047R control acini; type: cell-based; settings: 15 days (FIG. 7A right)
Protocol: as §2, §3

MCF7 parental cells = experiment: IncuCyte proliferation assay, MCF7 parental cells; type: cell-based, human; settings: 500 nM; parental MCF7 cells (FIG. 4C-D, FIG. 6B)
Protocol: as §4

MCF7-CR1.4 cells = experiment: IncuCyte proliferation assay, MAP3K1 mutant clone MCF7-CR1.4; type: cell-based, human
[4] = tested on: MCF10A-H1047R CR2.3 cells; experiment: IncuCyte proliferation assay, MAP3K1 mutant clone H1047R-CR2.3; type: cell-based
Protocol: as §4

MCF7 CR2.5 acini = experiment: 3D-Matrigel culture, acinus volume, MAP3K1-deficient MCF7 CR2.5; type: cell-based, human; settings: 500 nM every 3 days until day 15; MAP3K1-deficient acini (FIG. 7A left)
[5] = MAP3K1-deficient MCF7 cells (CR2.5)

| SMILES | inhibition of pS6 RP activity (pS6 RP (S235/236); [5]) | inhibition of pS6 RP activity (pS6 RP (S235/236); parental MCF7 cells) | phosphorylation of AKT on Thr308 (pAKT (T308); 250 nM for 24 hours, control cells transfected with control siRNA duplex inactive on MAP3K1 mRNA (MCF7, T47D; FIG. 2A)) | inhibition of PI3K signalling, effect on pAKT on Thr308 by Western blotting (pAKT (T308); MAP3K1-deficient MCF7 clones CR1.4 and CR2.5 compared to parental MCF7 (FIG. 2B)) | inhibition of pPRAS40 (pPRAS40) | number of positive pS6 RP cells, reduction by treatment (pS6 RP; MCF7 CR2.5 acini) | number of positive pS6 RP cells (pS6 RP; parental MCF7 acini) | acini volume (MCF7 parental acini) | increase in number of positive cleaved caspase 3 events [1] | effect on proliferation [2] | number of positive cleaved caspase 3 events [3] | effect on proliferation (growth) (MCF7 parental cells) | effect on proliferation (MCF7-CR1.4 cells; 500 nM, MCF7-CR1.4 (FIG. 4C-D, FIG. 6B)) | increase of IC50 for proliferation relative to parental cells (MCF7-CR1.4 cells; MCF7-CR1.4 relative to parental MCF7 cells (FIG. 5)) [fold] | effect on proliferation ([4]; 500 nM, MAP3K1-mutant line derived from MCF10A-H1047R (FIG. 4, FIG. 6)) | increase of IC50 for proliferation relative to parental cells ([4]; clone H1047R-CR2.3 relative to MCF10A-H1047R parental cells (FIG. 5)) [fold] | acini volume, reduction by treatment (MCF7 CR2.5 acini) |
| --- | --- | --- | --- | --- | --- | --- | --- | --- | --- | --- | --- | --- | --- | --- | --- | --- | --- |
| CCn1nc(C2CCN(C(=O)CCO)CC2)nc1-c1cnc(N)c(-c2nnc(C(C)(C)C)o2)n1 [Compound A, 1-(4-(5-(5-amino-6-(5-tert-butyl-1,3,4-oxadiazol-2-yl)pyrazin-2-yl)-1-ethyl-1H-1,2,4-triazol-3-yl)piperidin-1-yl)-3-hydroxypropan-1-one] | resistant to all treatments | efficiently inhibit | profound reduction | less pronounced | resistant | – | – | – | – | – | – | – | – | – | – | – | – |
| NC1(C(=O)N[C@@H](CCO)c2ccc(Cl)cc2)CCN(c2ncnc3[nH]ccc23)CC1 [Compound B, 4-amino-N-[(1S)-1-(4-chlorophenyl)-3-hydroxy-propyl]-1-(7H-pyrrolo[2,3-d]pyrimidin-4-yl)piperidine-4-carboxamide] | resistant to all treatments | efficiently inhibit | – | – | resistant | reverted | strongly reduced | significantly reduced | not significant | able to inhibit the proliferation | significant increase | able to reduce growth | no effect | 3 | no effect | 10 | partially reverted |
| CC(C)NC[C@@H](C(=O)N1CCN(c2ncnc3c2[C@H](C)C[C@H]3O)CC1)c1ccc(Cl)cc1 [GDC-0068, ipatasertib, reference compound] | resistant to all treatments | efficiently inhibit | – | – | resistant | – | – | – | – | – | – | – | – | – | – | – | – |
